These results are taken from ChEMBL document CHEMBL1201862, “PubChem BioAssay data set” (2004).

For assay [1], the system named is HEK293. Description: cells. To be noted: Homo sapiens. Type of assay: functional, cell-based.
For assay [2], the system named is HEK293. Kind of assay: NOD2 signaling inhibitors in MDP-stimulated cells, cell-based, uHTS, luminescence (AID 2001). Type of assay: functional. As to conditions: Homo sapiens.
Assay [3] deals with HEK293. Kind of assay: cells. Type of assay: functional, cell-based. To be noted: Homo sapiens. This is another data set of the same source.
Assay [4] concerns HEK293. Kind of assay: cells. As to conditions: Homo sapiens.
The subject of assay [5] is HEK293. Description: cells. The assay is classed as functional, cell-based. To be noted: Homo sapiens. The source holds these as a separate data set.
Assay [6] addresses T1, Nucleotide-binding oligomerization domain-containing protein 1 (Homo sapiens, UniProt Q9Y239).
T1 sequence (Q9Y239 whole entry): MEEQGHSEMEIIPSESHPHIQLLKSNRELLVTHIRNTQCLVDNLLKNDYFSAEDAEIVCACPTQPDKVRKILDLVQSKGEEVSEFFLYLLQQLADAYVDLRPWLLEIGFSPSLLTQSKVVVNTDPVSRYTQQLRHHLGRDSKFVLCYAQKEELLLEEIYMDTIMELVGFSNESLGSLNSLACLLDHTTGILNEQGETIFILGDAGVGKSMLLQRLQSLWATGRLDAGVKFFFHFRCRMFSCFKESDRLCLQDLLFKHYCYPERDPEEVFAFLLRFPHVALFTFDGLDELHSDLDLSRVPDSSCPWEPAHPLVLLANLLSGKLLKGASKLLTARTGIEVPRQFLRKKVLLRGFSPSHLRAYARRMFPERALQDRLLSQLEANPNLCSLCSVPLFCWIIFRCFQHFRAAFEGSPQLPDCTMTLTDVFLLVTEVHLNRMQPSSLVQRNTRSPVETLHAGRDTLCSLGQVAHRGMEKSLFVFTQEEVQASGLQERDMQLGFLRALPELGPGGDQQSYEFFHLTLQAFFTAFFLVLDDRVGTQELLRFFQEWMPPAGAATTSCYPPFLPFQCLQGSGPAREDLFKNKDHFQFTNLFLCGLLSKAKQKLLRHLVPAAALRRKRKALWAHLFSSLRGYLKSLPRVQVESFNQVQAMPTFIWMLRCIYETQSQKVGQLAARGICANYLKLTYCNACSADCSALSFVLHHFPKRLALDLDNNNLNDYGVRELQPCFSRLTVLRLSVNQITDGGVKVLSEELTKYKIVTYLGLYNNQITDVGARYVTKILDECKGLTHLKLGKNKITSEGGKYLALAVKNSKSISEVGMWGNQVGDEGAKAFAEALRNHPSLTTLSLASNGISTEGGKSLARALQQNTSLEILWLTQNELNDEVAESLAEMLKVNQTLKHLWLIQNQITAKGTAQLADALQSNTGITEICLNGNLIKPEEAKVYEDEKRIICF
Description: NOD1 signaling inhibitors, SAR follow-up, revised (AID 2333). Type of assay: functional.

Assay [7] concerns HEK293. Kind of assay: NOD1 signaling inhibitors, primary screen, cell-based, luminescence, uHTS (AID 1578). Type of assay: functional. To be noted: Homo sapiens.
The target in assay [8] is Tumor necrosis factor (Homo sapiens, UniProt P01375). Description: TNFa-triggered NF-kB activation inhibitors, SAR follow-up, cell-based, revised (AID 2337). Type of assay: functional.
Tumor necrosis factor, sequence (P01375 whole entry, the tested form may be a part): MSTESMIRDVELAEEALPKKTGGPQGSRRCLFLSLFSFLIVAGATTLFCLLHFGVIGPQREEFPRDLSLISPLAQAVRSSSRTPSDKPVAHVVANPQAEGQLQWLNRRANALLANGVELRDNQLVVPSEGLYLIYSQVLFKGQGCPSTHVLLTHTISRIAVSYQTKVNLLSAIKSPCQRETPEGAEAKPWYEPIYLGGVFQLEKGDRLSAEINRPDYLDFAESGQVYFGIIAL
Assay [9] concerns the target Nucleotide-binding oligomerization domain-containing protein 2 (Homo sapiens, UniProt Q9HC29). Description: NOD2 signaling inhibitors, cell-based, luminescence, uHTS, HEK293 (AID 1566). Type of assay: functional.
The target in assay [10] is Glyceraldehyde-3-phosphate dehydrogenase (Homo sapiens, UniProt P04406).
Glyceraldehyde-3-phosphate dehydrogenase, sequence (P04406 whole entry): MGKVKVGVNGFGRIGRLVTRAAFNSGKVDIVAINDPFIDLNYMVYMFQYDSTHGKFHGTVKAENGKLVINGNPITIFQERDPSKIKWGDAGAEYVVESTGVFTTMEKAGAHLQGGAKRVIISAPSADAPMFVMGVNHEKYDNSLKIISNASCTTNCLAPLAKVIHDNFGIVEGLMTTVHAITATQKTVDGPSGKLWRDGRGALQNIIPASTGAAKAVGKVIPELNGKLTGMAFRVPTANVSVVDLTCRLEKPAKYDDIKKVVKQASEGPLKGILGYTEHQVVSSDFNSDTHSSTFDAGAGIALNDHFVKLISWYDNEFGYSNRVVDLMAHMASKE
Assay [11] concerns the target T2, Alkaline phosphatase, tissue-nonspecific isozyme (Homo sapiens, UniProt P05186).
T2 sequence (P05186 whole entry): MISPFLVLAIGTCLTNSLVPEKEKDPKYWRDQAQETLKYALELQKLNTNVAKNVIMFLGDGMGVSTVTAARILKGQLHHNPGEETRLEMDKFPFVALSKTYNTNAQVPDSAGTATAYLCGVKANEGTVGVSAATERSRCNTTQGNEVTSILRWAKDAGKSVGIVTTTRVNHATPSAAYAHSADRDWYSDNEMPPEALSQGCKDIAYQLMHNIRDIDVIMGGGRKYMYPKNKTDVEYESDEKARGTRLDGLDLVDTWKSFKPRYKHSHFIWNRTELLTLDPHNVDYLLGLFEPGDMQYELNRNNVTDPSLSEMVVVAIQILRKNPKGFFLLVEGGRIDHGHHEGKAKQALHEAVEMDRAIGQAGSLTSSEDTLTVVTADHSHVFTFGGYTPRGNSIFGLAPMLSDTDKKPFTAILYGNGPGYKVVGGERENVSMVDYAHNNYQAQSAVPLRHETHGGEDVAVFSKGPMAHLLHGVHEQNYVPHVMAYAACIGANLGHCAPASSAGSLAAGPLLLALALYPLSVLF
Kind of assay: human TNAP enzyme inhibitors, SAR follow-up, biochemical, luminescent, dose response (AID 1056).

The target in assay [12] is Dual specificity tyrosine-phosphorylation-regulated kinase 1A (Rattus norvegicus, UniProt Q63470). The assay is classed as biochemical, Homo sapiens.
Assay [13] deals with T3, Heat shock factor protein 1 (Mus musculus, UniProt P38532).
T3 sequence (P38532 whole entry): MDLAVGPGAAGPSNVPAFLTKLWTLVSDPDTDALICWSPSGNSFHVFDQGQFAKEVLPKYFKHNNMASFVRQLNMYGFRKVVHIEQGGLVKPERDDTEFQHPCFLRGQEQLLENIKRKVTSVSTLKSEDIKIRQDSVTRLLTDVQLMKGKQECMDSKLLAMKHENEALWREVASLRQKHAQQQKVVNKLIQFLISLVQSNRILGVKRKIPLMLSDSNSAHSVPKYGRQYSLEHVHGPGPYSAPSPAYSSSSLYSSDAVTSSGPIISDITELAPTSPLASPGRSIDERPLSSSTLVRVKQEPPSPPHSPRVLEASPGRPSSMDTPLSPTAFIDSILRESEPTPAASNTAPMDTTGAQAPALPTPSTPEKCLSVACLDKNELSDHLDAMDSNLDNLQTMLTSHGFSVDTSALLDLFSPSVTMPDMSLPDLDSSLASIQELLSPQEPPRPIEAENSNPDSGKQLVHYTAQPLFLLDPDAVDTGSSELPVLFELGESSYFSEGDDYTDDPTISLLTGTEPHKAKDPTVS
Description: inhibition of MG132-induced HSE-luciferase signal, confirmation, cell-based, NIH3T3, luminescence, dose retest (AID 2382).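 Also: NIH3T3 fibroblasts with HSF1-driven luciferase reporter stressed by proteasome inhibitor MG132; luminescence from HSF1-driven luciferase expression after 8 hours of MG132 stress.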 The assay is classed as functional.

Assay [14] can be described thus: THP-1 cell cytotoxicity, dose response, cytotoxicity control for non-replicating M. tuberculosis project (AID 489025). Type of assay: functional.
Assay [15] can be described thus: cells. Type of assay: functional.
Assay [16] addresses T4, Microphthalmia-associated transcription factor (Homo sapiens, UniProt O75030).
T4 sequence (O75030 whole entry): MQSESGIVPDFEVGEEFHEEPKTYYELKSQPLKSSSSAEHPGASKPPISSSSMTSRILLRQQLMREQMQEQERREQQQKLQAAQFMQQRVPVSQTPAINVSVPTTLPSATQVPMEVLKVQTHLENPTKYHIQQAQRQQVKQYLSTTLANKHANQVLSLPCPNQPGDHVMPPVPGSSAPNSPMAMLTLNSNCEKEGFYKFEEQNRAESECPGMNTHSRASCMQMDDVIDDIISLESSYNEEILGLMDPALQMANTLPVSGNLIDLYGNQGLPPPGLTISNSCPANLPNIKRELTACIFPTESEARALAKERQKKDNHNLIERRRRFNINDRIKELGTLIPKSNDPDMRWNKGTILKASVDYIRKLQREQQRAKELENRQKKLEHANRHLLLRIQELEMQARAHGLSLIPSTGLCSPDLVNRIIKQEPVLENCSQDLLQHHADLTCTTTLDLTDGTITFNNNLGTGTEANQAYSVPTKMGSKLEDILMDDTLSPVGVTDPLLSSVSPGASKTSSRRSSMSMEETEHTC
Kind of assay: TRPM1 promoter luciferase signal decrease, dose response, MITF inhibitor project, cell-based, SK-MEL-5, cherry-picked, set 3 (AID 493073).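 Also: SK-MEL-5 melanoma cells with luciferase driven by the MITF target TRPM1 promoter.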 The assay is classed as functional.

Where “and” joins values, the source holds several entries; their conditions need not be identical. Identical values can stand only once. Calls of active or inactive are those of the source. Where only a bound is given, the exact number is not on record here.

Nucleotide-binding oligomerization domain-containing protein 2, sequence (Q9HC29 whole entry, the tested form may be a part): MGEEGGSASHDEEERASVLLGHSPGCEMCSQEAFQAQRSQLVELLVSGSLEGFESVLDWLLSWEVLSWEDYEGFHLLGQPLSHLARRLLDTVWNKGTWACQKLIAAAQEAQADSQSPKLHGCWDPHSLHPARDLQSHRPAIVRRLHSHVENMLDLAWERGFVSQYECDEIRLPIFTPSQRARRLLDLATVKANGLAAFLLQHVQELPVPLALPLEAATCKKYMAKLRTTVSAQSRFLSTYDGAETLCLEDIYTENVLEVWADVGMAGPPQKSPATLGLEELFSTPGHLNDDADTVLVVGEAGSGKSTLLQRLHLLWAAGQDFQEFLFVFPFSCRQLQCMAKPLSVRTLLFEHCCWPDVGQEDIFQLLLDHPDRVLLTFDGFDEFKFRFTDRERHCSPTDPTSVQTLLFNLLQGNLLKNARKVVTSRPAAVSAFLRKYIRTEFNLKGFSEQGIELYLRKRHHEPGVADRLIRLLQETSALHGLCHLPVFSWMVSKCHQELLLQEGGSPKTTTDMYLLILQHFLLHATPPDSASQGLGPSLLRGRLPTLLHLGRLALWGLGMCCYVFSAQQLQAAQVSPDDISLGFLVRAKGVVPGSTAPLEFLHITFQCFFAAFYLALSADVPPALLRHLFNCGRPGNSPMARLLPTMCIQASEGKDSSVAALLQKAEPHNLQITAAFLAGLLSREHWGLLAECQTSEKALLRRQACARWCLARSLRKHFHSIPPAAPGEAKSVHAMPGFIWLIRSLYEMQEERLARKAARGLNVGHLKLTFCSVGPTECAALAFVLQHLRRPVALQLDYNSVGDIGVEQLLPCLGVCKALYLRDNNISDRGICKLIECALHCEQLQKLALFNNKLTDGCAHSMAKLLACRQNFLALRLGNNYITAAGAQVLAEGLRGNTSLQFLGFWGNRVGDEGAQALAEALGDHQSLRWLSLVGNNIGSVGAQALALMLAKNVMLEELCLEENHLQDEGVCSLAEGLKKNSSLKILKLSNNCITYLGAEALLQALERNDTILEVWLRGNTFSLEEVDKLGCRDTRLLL

Take `COc1cccc(C(=O)Nc2sc3c(c2C(=O)O)CCCC3)c1`: the IC50 was > 20 µM (inactive) in assay [1]; > 20 µM (inactive) in assay [2]; > 20 µM (inactive) in assay [3]; > 20 µM (inactive) in assay [4]; > 20 µM (inactive) in [5]; 1.76 µM (active) in assay [6]. Further, the IC50 in assay [8] was > 20 µM (inactive). For the same molecule, the EC50 in assay [7] and in [9] was > 20 µM (inactive) throughout.
Turning to `O=C(Nc1sc2c(c1C(=O)O)CCCC2)c1ccccc1Cl`, the IC50 in [1] was > 20 µM (inactive); in [2], 18.5 µM (inactive); in assay [3] it was > 20 µM (inactive); in [4] it was > 20 µM (inactive); in [5], > 20 µM (inactive); in [6] it was 5.12 µM (active) and 4.45 µM (active). The IC50 in assay [8] was > 20 µM (inactive) and 12.9 µM (active). Also, the values for the EC50 in assay [7] and in [9] were 14.5 µM (active) and > 20 µM (inactive), respectively.
Take `CCc1nnc(NC(=O)c2ccc(Cl)c(S(=O)(=O)N3CCc4ccccc4C3)c2)s1`: the IC50 in assay [1] was 5.23 µM (active); in [2], 4.3 µM (active); in [3], 17 µM (active); in assay [5], 15.5 µM (active). In addition, the EC50 in [7] is 2.1 µM (active); in assay [9] it was 5.23 µM (active).
Take `O=C(Nc1ccccc1)c1n[nH]c2c1COc1ccccc1-2`: the IC50 is > 100 µM (not active) in assay [10] and > 100 µM (inactive) in assay [11].
`COc1ccc(OC)c(NC(=O)c2cccnc2)c1`: the IC50 in assay [10] is > 100 µM (not active); in [11] it was > 100 µM (inactive).
The like results for `COc1ccc(OC)c(NC(=O)c2cnc3ccccc3c2)c1` were, in that order, > 10 µM (inconclusive) and > 10 µM (inactive).
For `CNC(=S)N/N=C/c1ccc(-c2cccc(C(=O)O)c2)o1`, the AC50 in assay [12] is 7.05 µM (active). In addition, in assay [13], the EC50 is on record as > 195 µM (not active).
Regarding `O=C(N/N=C/c1ccc([N+](=O)[O-])s1)c1ccccc1`, the CC50 in [14] was 33.3 µM (active). Moreover, the IC50 in assay [15] is 10.3 µM (active). Besides, the AC50 in [16] is 2.29 µM (active).
On to `Cc1nccn1-c1cccnc1`, for which the IC50 was > 100 µM (not active) in assay [10] and > 100 µM (inactive) in [11].
With `Cc1ccc(CNC(=O)c2cc3c(=O)n(C)c4ccccc4c3n2C)o1`, the AC50 in assay [12] is > 120 µM (inactive).
`O=S(=O)(Nc1cccnc1)c1ccccc1`: the IC50 in assay [10] is > 100 µM (not active); in assay [11], > 100 µM (inactive).
In the case of `CCOc1ccc(NC(=O)c2ccc(CN3CCc4ccccc43)cc2)cc1`, the IC50 in assay [4], in assay [6] and in [8] was > 20 µM (inactive) each time.
